Measurements as given in the supplement of paper PMC10307832.

Columns and labels:
Experiment in all cases: relative viability (nuclei count vs DMSO), 5 days (fraction); higher = more cells survive
[1] = compound: CCOC(=O)CCNc1cc(N2CCc3ccccc3CC2)nc(-c2ccccn2)n1 [GSK-J4] + Cc1nc(Nc2ncc(C(=O)Nc3c(C)cccc3Cl)s2)cc(N2CCN(CCO)CC2)n1 [Dasatinib] (partner 0.075 µM)
How it was run: (§1)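 Dosing by pin tool came one day after lung cancer cell lines were seeded in 1536-well plates, using either one drug or a fixed anchor-drug dose plus five library-drug doses (not always all listed) in √10 steps. After 5 days, nuclei were counted on 4× images. Relative viability is treated-well nuclei count divided by vehicle-well nuclei count, and values are medians of duplicate plates.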

[2] = compound: CN1CCC(CC1)OC2=CC(=C(C=C2)NC3=NC=C4C(=N3)N(C(=O)N4C)C5CCCC5)OC [AZ3146] + Cc1cc(Nc2cc(N3CCN(C)CC3)nc(Sc3ccc(NC(=O)C4CC4)cc3)n2)n[nH]1 [Tozasertib] (partner 0.1 µM)
How it was run: as §1

[3] = compound: CN1CCC(CC1)OC2=CC(=C(C=C2)NC3=NC=C4C(=N3)N(C(=O)N4C)C5CCCC5)OC [AZ3146] + CC(C)C[C@H](NC(=O)[C@H](Cc1ccccc1)NC(=O)c1cnccn1)B(O)O [Bortezomib] (partner 0.002 µM)
How it was run: as §1

[4] = compound: CN1CCC(CC1)OC2=CC(=C(C=C2)NC3=NC=C4C(=N3)N(C(=O)N4C)C5CCCC5)OC [AZ3146] + Nc1nc2[nH]cc(CCc3ccc(C(=O)N[C@@H](CCC(=O)O)C(=O)O)cc3)c2c(=O)[nH]1 [Pemetrexed] (partner 0.2 µM)
How it was run: as §1

| Cell Line | relative viability ([1]; first compound 0.5 µM) | relative viability ([1]; first compound 5 µM) | relative viability ([1]; first compound 15.81 µM) | relative viability ([1]; first compound 50 µM) | relative viability ([2]; first compound 0.08 µM) | relative viability ([2]; first compound 0.253 µM) | relative viability ([2]; first compound 0.8 µM) | relative viability ([2]; first compound 2.53 µM) | relative viability ([2]; first compound 8 µM) | relative viability ([3]; first compound 0.08 µM) | relative viability ([3]; first compound 0.253 µM) | relative viability ([3]; first compound 0.8 µM) | relative viability ([3]; first compound 2.53 µM) | relative viability ([3]; first compound 8 µM) | relative viability ([4]; first compound 0.08 µM) | relative viability ([4]; first compound 0.253 µM) | relative viability ([4]; first compound 0.8 µM) | relative viability ([4]; first compound 2.53 µM) | relative viability ([4]; first compound 8 µM) | relative viability ([1]; first compound 1.581 µM) |
| --- | --- | --- | --- | --- | --- | --- | --- | --- | --- | --- | --- | --- | --- | --- | --- | --- | --- | --- | --- | --- |
| NCI-H2087 | 0.747 | 0.725 | 0.694 | 0.645 | 0.215 | 0.31 | 0.236 | 0.17 | 0.175 | 0.676 | 0.908 | 0.734 | 0.955 | 0.916 | 0.648 | 0.683 | 0.684 | 0.67 | 0.661 | – |
| NCI-H2126 | 0.603 | 0.587 | 0.56 | 0.444 | 0.71 | 0.803 | 0.722 | 0.378 | 0.234 | 1.07 | 1.11 | 1.09 | 1.09 | 1.08 | 0.613 | 0.662 | 0.618 | 0.677 | 0.696 | 0.47 |
| NCI-H2228 | 0.534 | 0.683 | 0.398 | 0.525 | 0.224 | 0.385 | 0.292 | 0.198 | 0.18 | 0.904 | 1.03 | 1.04 | 1.18 | 0.953 | 0.297 | 0.325 | 0.333 | 0.298 | 0.37 | 0.436 |
| NCI-H2347 | 0.316 | 0.572 | – | 0.261 | 0.399 | 0.529 | 0.461 | 0.744 | 0.464 | 0.747 | 1.08 | 0.758 | 1.02 | 1.02 | 0.42 | 0.418 | 0.458 | 0.404 | 0.416 | 0.286 |
| NCI-H2405 | 0.231 | – | 0.212 | 0.186 | 0.609 | 0.784 | 0.63 | 0.577 | 0.397 | 1.02 | 1 | 0.944 | 0.994 | 1.11 | 1.12 | 1.06 | 1.1 | 1.11 | 1.04 | 0.327 |
| NCI-H3122 | 0.826 | 0.788 | 0.864 | 0.789 | 0.397 | 0.345 | 0.307 | 0.344 | 0.228 | 1.08 | 1 | 0.997 | 0.999 | 1.07 | 0.197 | 0.191 | 0.203 | 0.2 | 0.185 | 0.722 |
| PC-3 [JPC-3] | 0.978 | 0.742 | 0.924 | 0.859 | 0.829 | 0.905 | 0.855 | 0.877 | 0.715 | 0.806 | 0.84 | 0.83 | 0.959 | 0.859 | 0.999 | – | 1.19 | 1.02 | 0.942 | 0.891 |
| PC-14 | 0.252 | 0.204 | 0.285 | 0.255 | 0.33 | 0.589 | 0.543 | 0.386 | 0.0776 | 0.872 | 0.891 | 0.846 | 0.997 | 0.721 | 0.138 | 0.131 | 0.142 | 0.119 | 0.0971 | 0.271 |
| RERF-LC-KJ | 0.68 | 0.695 | 0.708 | 0.371 | 0.465 | 0.497 | 0.403 | 0.294 | 0.25 | 1.07 | 1.15 | 1.24 | 1.04 | 0.98 | 0.43 | 0.485 | 0.461 | 0.473 | 0.488 | 0.774 |
| SK-LU-1 | 0.176 | 0.127 | 0.199 | 0.179 | 0.354 | 0.293 | 0.279 | 0.3 | 0.216 | – | – | 1.02 | 1.15 | 1.5 | 0.921 | 1.03 | 0.961 | 1.06 | 0.879 | 0.161 |
| SW 1573 | 0.326 | 0.348 | 0.362 | 0.246 | 0.208 | 0.162 | 0.179 | 0.164 | 0.195 | 0.995 | 1.03 | 1.09 | 0.869 | 0.777 | 0.815 | 0.844 | 0.861 | 0.82 | 0.228 | 0.42 |
